The record followed here is patent US8183293B2, “Phenyl acetic acid derivatives” (Amgen Inc., priority 2007, dated 2012).

A short description of data set [1]: In vitro covalent binding to protein, human liver microsomes. It is filed as in vitro ADME. The conditions noted are these: in the presence of NADPH cofactor. On the procedure:
(§1) The propensity of AMG 009 metabolism to generate reactive metabolites was conducted in studies to evaluate in vitro covalent binding to protein by standardized methods (Day, et al., J. Pharmacol. Toxicol. Methods., 52, 278-285 (2005)).
Background: Liver microsomes are vesicles of endoplasmic reticulum, rich in cytochrome P450 enzymes.

Data set [2] has as its system antigen-induced airway response. Kind of data set: Sheep airway response model of asthma. It is filed as in vivo. From the text: (§2) The sheep and guinea pig models employed herein are disclosed in publications such as Abraham, W. M., Sheep Models of Allergic Bronchoconstriction)(in Allergy and Allergic Disease 2:1045 1977); Isenberg-Feig, H et al., Animal Models of Allergic Asthma (in Current Allergy and Asthma Reports 2003, 3:70-78); Abraham, W. M., et al. Am J Respir Crit. Care Med vol. 159. pp. 1205-1214, 1999; Abraham, W. M. et al, Am J Respir Crit. Care Med vol. 169. pp. 97-104, 2004; and Jones, T. R. et al Can. J. Physiol. Pharmacol. 73: 191-201 1995.

Data set [3] can be described thus: In vitro covalent binding to protein, rat liver microsomes. It is filed as in vitro ADME. The conditions noted are these: in the presence of NADPH cofactor. On the procedure:
as §1

Data set [4] has as its system PGD2-induced airway constriction. Nature of the data set: Guinea pig model of airway constriction. The data set is classed as in vivo. To be noted: animals pretreated with aerosolized PGD2 at doses as high as 0.625 mg/mL, FIG. 5.
Excerpt: as §2, with “FIGS. 6A and 6B are graphs comparing the efficacy of AMG 009 (FIG. 6A) and Example Compound 14 (FIG. 6A) in the Guinea Pig Model of airway constriction. The” for “The”

Data set [5] is described as follows: Hygroscopicity of polymorph. The data set is classed as physicochemical.

“Also recorded” adds a separate entry of the source.

Consider `CCCCNC(=O)c1ccc(Oc2ccc(CC(=O)O)cc2OC)c(NS(=O)(=O)c2ccc(Cl)cc2Cl)c1` [AMG 009], for which the “covalent binding of radioactive equivalents to protein” value in data set [1] and in data set [3] was ~50 pmol equivalent/mg protein in each case. Also, the “antigen-induced late airway response” value is “inhibits” in data set [2] (7.5 mg/kg (multi-dose), FIG. 3A); “inhibits” in data set [2] (7.5 mg/kg (single dose), FIG. 1A); “inhibits” in data set [2] (15 mg/kg (single dose), FIG. 2A). The “antigen-induced development of airway hyperreactivity to carbochol” value was “inhibits” in data set [2] (7.5 mg/kg (multi-dose), FIG. 3B); “inhibits” in data set [2] (7.5 mg/kg (single dose), FIG. 1B); “inhibits” in data set [2] (15 mg/kg (single dose), FIG. 2B). For the same compound, the “allergen-induced recruitment of inflammatory cells to the lung (BAL)” value in data set [2] (sheep airway response model) is recorded as “blocked; also recorded: effective in blocking”. Besides, in data set [2] (sheep airway response model), the “antigen-induced development of airway hyper-reactivity (AHR) to carbachol” value is listed as “blocks”. Besides, the “antigen-induced late airway response (LAR)” value in data set [2] (sheep airway response model) was “inhibits”.

Turning to `CC(C)(C)NC(=O)c1ccc(Oc2cc(F)c(CC(=O)O)cc2Cl)c(NS(=O)(=O)c2ccc(C3CC3)cc2Cl)c1` [Example Compound 14, 2-(4-(4-(tert-butylcarbamoyl)-2-(2-chloro-4-cyclopropylphenylsulfonamido)phenoxy)-5-chloro-2-fluorophenyl)acetic acid], the “response in Guinea Pig Model” value in data set [4] is recorded as “dose-dependent response”.

For `CC(C)(C)NC(=O)c1ccc(Oc2cc(F)c(CC(=O)O)cc2Cl)c(NS(=O)(=O)c2ccc(C3CC3)cc2Cl)c1` [Form II, 2-(4-(4-(tert-butylcarbamoyl)-2-(2-chloro-4-cyclopropylphenylsulfonamido)phenoxy)-5-chloro-2-fluorophenyl)acetic acid], the hygroscopicity entry in data set [5] is “non hygroscopic”.
